According to patent publication US8153821B2, “Compounds” (priority 2008, dated 2012):

Experiments:
[1] = Dynamic vapor sorption (DVS); assay type: physicochemical; conditions: 25° C.
Procedure: Sorption isotherms were determined using a SMS DVS Intrinsic moisture sorption analyzer controlled by SMS Analysis suite software. The sample temperature was maintained at 25° C. by the instrument controls. The humidity was controlled by mixing streams of dry and wet nitrogen, with a total flow rate of 200 mL/min. The relative humidity was measured by a calibrated Rotronic probe (dynamic range of 1.0-100% RH), located near the sample. The weight change, (mass relaxation) of the sample as a function of % RH was constantly monitored by the microbalance (accuracy ±0.005 mg).
Typically a 5-20 mg sample was placed on the tared mesh stainless steel basket under ambient conditions. The sample was loaded and unloaded at 40% RH and 25° C. (typical ambient conditions). A moisture sorption isotherm was performed as outlined below (2 scans giving 1 complete cycle). The standard isotherm was performed at 25° C. at 10% RH intervals over a 0-90% RH range.

SMILES | melting point [°C] | DVS water uptake [1]
C(=C\[C@H]1CCNC1)/c1cncc(OC2CCOCC2)c1.O=C(O)C(=O)O | 180 to 181 | –
C(=C\[C@H]1CCNC1)/c1cncc(OC2CCOCC2)c1.O=C(O)C[C@H](O)C(=O)O [(R)-3-((E)-2-(pyrrolidin-3-yl)vinyl)-5-(tetrahydropyran-4-yloxy)pyridine mono-L-malate] | – | minimum water uptake up to 80% R.H.
